Results: ChEMBL document CHEMBL1201862, “PubChem BioAssay data set” (2004)
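These data come from cells grown in 96-well plates and exposed to compound for 48 hours at five concentrations. GI50 marks 50% less growth.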 The source made the active and inactive calls. Rule as the data show it: active = GI50 up to about 1.1 µM and inactive = higher.

Experiments:
Test in all cases: NCI tumour cell line growth inhibition, 48 h
HL-60 = test system: HL-60
Malme-3M = test system: Malme-3M
RXF 631 = test system: RXF 631
KM-20L2 = test system: KM-20L2
OVCAR-3 = test system: OVCAR-3
CAKI-1 = test system: CAKI-1
HOP-18 = test system: HOP-18
NCI-H23 = test system: NCI-H23
KM12 = test system: KM12
M14 = test system: M14
SR = test system: SR
SW-620 = test system: SW-620
TK-10 = test system: TK-10
OVCAR-8 = test system: OVCAR-8
U-251 = test system: U-251
HOP-62 = test system: HOP-62
COLO 205 = test system: COLO 205
RPMI-8226 = test system: RPMI-8226
SNB-75 = test system: SNB-75
EKVX = test system: EKVX
OVCAR-5 = test system: OVCAR-5
IGROV-1 = test system: IGROV-1
SF-295 = test system: SF-295
DLD-1 = test system: DLD-1
CCRF-CEM = test system: CCRF-CEM
HCT-116 = test system: HCT-116
SN12C = test system: SN12C
HCC 2998 = test system: HCC 2998
RXF 393 = test system: RXF 393
SNB-78 = test system: SNB-78
HT-29 = test system: HT-29
UACC-257 = test system: UACC-257
LXFL 529 = test system: LXFL 529
LOX IMVI = test system: LOX IMVI
A498 = test system: A498
K562 = test system: K562
786-0 = test system: 786-0
DMS-273 = test system: DMS-273
UO-31 = test system: UO-31
SF-539 = test system: SF-539
ACHN = test system: ACHN
MOLT-4 = test system: MOLT-4
SK-MEL-2 = test system: SK-MEL-2
HCT-15 = test system: HCT-15
NCI-H460 = test system: NCI-H460
A549 = test system: A549
NCI-H226 = test system: NCI-H226
OVCAR-4 = test system: OVCAR-4
HOP-92 = test system: HOP-92
UACC-62 = test system: UACC-62
SK-MEL-5 = test system: SK-MEL-5
M19-MEL = test system: M19-MEL
SF-268 = test system: SF-268
SK-MEL-28 = test system: SK-MEL-28
NCI-H522 = test system: NCI-H522
DMS-114 = test system: DMS-114
SK-OV-3 = test system: SK-OV-3
XF498 = test system: XF498

## CC1(C)OC2C(=O)OC(COCc3ccccc3)C2O1 (stereo not given)
HL-60
  GI50: > 100 µM (inactive)
Malme-3M
  GI50: > 100 µM (inactive)
RXF 631
  GI50: > 100 µM (inactive)
KM-20L2
  GI50: > 100 µM (inactive)
OVCAR-3
  GI50: > 100 µM (inactive)
CAKI-1
  GI50: > 100 µM (inactive)
HOP-18
  GI50: > 100 µM (inactive)
NCI-H23
  GI50: > 100 µM (inactive)
KM12
  GI50: > 100 µM (inactive)
M14
  GI50: > 100 µM (inactive)
SR
  GI50: 78.9 µM (inactive)
SW-620
  GI50: > 100 µM (inactive)
TK-10
  GI50: > 100 µM (inactive)
OVCAR-8
  GI50: > 100 µM (inactive)
U-251
  GI50: > 100 µM (inactive)
HOP-62
  GI50: > 100 µM (inactive)
COLO 205
  GI50: > 100 µM (inactive)
RPMI-8226
  GI50: > 100 µM (inactive)
SNB-75
  GI50: > 100 µM (inactive)
EKVX
  GI50: > 100 µM (inactive)
OVCAR-5
  GI50: > 100 µM (inactive)
IGROV-1
  GI50: > 100 µM (inactive)
SF-295
  GI50: > 100 µM (inactive)
DLD-1
  GI50: > 100 µM (inactive)
CCRF-CEM
  GI50: > 100 µM (inactive)
HCT-116
  GI50: > 100 µM (inactive)
SN12C
  GI50: > 100 µM (inactive)
HCC 2998
  GI50: > 100 µM (inactive)
RXF 393
  GI50: > 100 µM (inactive)
SNB-78
  GI50: > 100 µM (inactive)
HT-29
  GI50: > 100 µM (inactive)
UACC-257
  GI50: > 100 µM (inactive)
LXFL 529
  GI50: > 100 µM (inactive)
LOX IMVI
  GI50: > 100 µM (inactive)
A498
  GI50: > 100 µM (inactive)
K562
  GI50: > 100 µM (inactive)
786-0
  GI50: > 100 µM (inactive)
DMS-273
  GI50: > 100 µM (inactive)
UO-31
  GI50: > 100 µM (inactive)
SF-539
  GI50: > 100 µM (inactive)
ACHN
  GI50: > 100 µM (inactive)
MOLT-4
  GI50: > 100 µM (inactive)
SK-MEL-2
  GI50: > 100 µM (inactive)
HCT-15
  GI50: > 100 µM
NCI-H460
  GI50: > 100 µM (inactive)
A549
  GI50: > 100 µM (inactive)
NCI-H226
  GI50: > 100 µM (inactive)
OVCAR-4
  GI50: > 100 µM (inactive)
HOP-92
  GI50: > 100 µM (inactive)
UACC-62
  GI50: > 100 µM (inactive)
SK-MEL-5
  GI50: > 100 µM (inactive)
M19-MEL
  GI50: > 100 µM (inactive)
SF-268
  GI50: > 100 µM (inactive)
SK-MEL-28
  GI50: > 100 µM (inactive)

## O=C1CCCC/C(=C/c2ccccc2)N1
NCI-H522
  GI50: > 100 µM (inactive)
HL-60
  GI50: > 100 µM (inactive)
Malme-3M
  GI50: > 100 µM (inactive)
DMS-114
  GI50: 50.4 µM (inactive)
KM-20L2
  GI50: > 100 µM (inactive)
OVCAR-3
  GI50: > 100 µM (inactive)
CAKI-1
  GI50: > 100 µM (inactive)
HOP-18
  GI50: > 100 µM (inactive)
NCI-H23
  GI50: > 100 µM (inactive)
SK-OV-3
  GI50: > 100 µM (inactive)
KM12
  GI50: > 100 µM (inactive)
M14
  GI50: > 100 µM (inactive)
SR
  GI50: > 100 µM (inactive)
SW-620
  GI50: > 100 µM (inactive)
TK-10
  GI50: > 100 µM (inactive)
OVCAR-8
  GI50: > 100 µM (inactive)
U-251
  GI50: > 100 µM (inactive)
HOP-62
  GI50: > 100 µM (inactive)
COLO 205
  GI50: > 100 µM (inactive)
RPMI-8226
  GI50: > 100 µM (inactive)
SNB-75
  GI50: 56.6 µM (inactive)
EKVX
  GI50: > 100 µM (inactive)
OVCAR-5
  GI50: > 100 µM (inactive)
IGROV-1
  GI50: > 100 µM (inactive)
XF498
  GI50: > 100 µM (inactive)
SF-295
  GI50: > 100 µM (inactive)
DLD-1
  GI50: > 100 µM (inactive)
CCRF-CEM
  GI50: > 100 µM (inactive)
HCT-116
  GI50: > 100 µM (inactive)
SN12C
  GI50: > 100 µM (inactive)
HCC 2998
  GI50: > 100 µM (inactive)
RXF 393
  GI50: > 100 µM (inactive)
SNB-78
  GI50: > 100 µM (inactive)
HT-29
  GI50: > 100 µM (inactive)
UACC-257
  GI50: > 100 µM (inactive)
LXFL 529
  GI50: > 100 µM (inactive)
LOX IMVI
  GI50: > 100 µM (inactive)
A498
  GI50: > 100 µM (inactive)
K562
  GI50: > 100 µM (inactive)
786-0
  GI50: > 100 µM (inactive)
DMS-273
  GI50: > 100 µM (inactive)
UO-31
  GI50: > 100 µM (inactive)
SF-539
  GI50: > 100 µM (inactive)
ACHN
  GI50: > 100 µM (inactive)
MOLT-4
  GI50: > 100 µM (inactive)
SK-MEL-2
  GI50: > 100 µM (inactive)
HCT-15
  GI50: > 100 µM
NCI-H460
  GI50: > 100 µM (inactive)
A549
  GI50: > 100 µM (inactive)
NCI-H226
  GI50: > 100 µM (inactive)
OVCAR-4
  GI50: > 100 µM (inactive)
HOP-92
  GI50: > 100 µM (inactive)
UACC-62
  GI50: > 100 µM (inactive)
M19-MEL
  GI50: > 100 µM (inactive)
SF-268
  GI50: > 100 µM (inactive)
SK-MEL-28
  GI50: > 100 µM (inactive)
